In US10487092B2, “Pyrazolopyridinamines as MKNK1 and MKNK2 inhibitors” (BAYER PHARMA AKTIENGESELLSCHAFT, priority 2014, dated 2019) one finds IC50 data, which are given here for 21 compounds.

Where only a bound is given, the exact number is not on record here.

Test [1] concerns secretion of TNF-α in human PBMCs. The experiment in a line: In vitro IL-1β-induced cytokine (TNF-α) secretion of human PBMCs. Format: cell-based. Particulars: PBMC; human PBMCs stimulated with 20 ng/ml IL-1β for 24 hours. The source says: In Vitro IL-1β (Interleukin-1 beta, IL-1b)-Induced Cytokine Secretion of Human PBMCs (Peripheral Blood Mononuclear Cells)
The effect of the chemical compounds on the induced cytokine secretion of human PBMCs has been investigated. Here, the cytokine secretion has been induced by IL-1β which binding to its receptors leads to the activation of the MKNK signaling pathway.
Human PBMCs have been isolated from anti-coagulated human whole blood donated from healthy volunteers by pre-filling Leucosep tubes with ficoll-paque (15 ml, Biochrom, order ID: L6115) and adding 20 ml whole blood. After centrifugation of the blood at 800 g for 15 min at room temperature (RT) plasma including thrombocytes has been discarded. PBMCs were transferred to a new falcon tube, washed with PBS (phosphate-buffered saline) at 250 g for 10 min at RT and resuspended in complete medium [RPMI 1640, without L-glutamine (PAA, order ID: E15-039), 10% FCS; 50 U/ml Penicillin, 50 μg/ml Streptomycin (PAA, order ID: P11-010) and 1% L-glutamine (Sigma, order ID. G7513)]. The assay was performed in a 96-well plate at a cell density of 2.5×10^5 cells/well as triplicates. The compounds were serially diluted in DMSO and added to the PBMCs at a range of 3×10^−9 M to 1×10^−5M with a final concentration of 0.4% DMSO, respectively. Treatment of PBMCs with 0.4% DMSO was used as control. After 30 min of incubation, PBMCs were stimulated with 20 ng/ml IL-1β (R&D, order ID: 201-LB CF) for 24 hours. Cell viability was measured using the CellTiter-Glo Luminescent Assay (Promega, order ID: G7571) following the manufacturers protocol. The amount of secreted TNF-α (tumor necrosis factor-alpha) in the supernatant was determined using the Human Prolnflammatory 9-Plex (MSD, order ID: K15007B) according to manufacturer's instruction. The inhibitory activity was determined as the relation to the control in percent. IC50 values were calculated using the 4-parameter logistic model.

In a further test the target is human full-length MKNK1 (Homo sapiens (Human), UniProt Q9BUB5, T344D). In words: MKNK1 kinase high ATP assay (TR-FRET). Conditions: high ATP (2 mM), 15 min preincubation with enzyme; read-out: MKNK1 IC50. The test is classed as biochemical. The method, boiled down: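 GST-tagged full-length MKNK1 (aa 1–424, T344D; insect-cell expressed) preincubated 15 min with compound, then reacted 30 min at 22 °C with 2 mM ATP and 0.06 μM biotinylated peptide (final) in HEPES pH 7.5 buffer. Phosphopeptide detected by TR-FRET 665/620 ratio, normalized to no-inhibitor and no-enzyme controls.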
Chain of human full-length MKNK1 (Q9BUB5 other isoform, or with tags, fused parts or gaps T344D): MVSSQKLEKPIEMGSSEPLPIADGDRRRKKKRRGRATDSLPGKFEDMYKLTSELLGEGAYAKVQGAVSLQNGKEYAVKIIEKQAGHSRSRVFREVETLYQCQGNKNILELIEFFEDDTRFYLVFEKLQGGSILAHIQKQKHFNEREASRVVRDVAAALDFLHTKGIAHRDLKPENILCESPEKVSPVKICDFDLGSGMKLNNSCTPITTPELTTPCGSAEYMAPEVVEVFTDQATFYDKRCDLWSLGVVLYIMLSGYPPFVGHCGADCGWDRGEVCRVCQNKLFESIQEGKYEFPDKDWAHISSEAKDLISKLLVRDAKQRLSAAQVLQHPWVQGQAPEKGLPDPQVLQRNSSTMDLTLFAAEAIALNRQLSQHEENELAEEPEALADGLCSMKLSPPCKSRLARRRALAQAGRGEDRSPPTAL

As for `COc1cn2nccc2cc1Nc1ncnc2sc3c(c12)CC[C@H](C(=O)N1CC[C@@H](N(C)C)C1)C3` [Example 106, [(3R)-3-(Dimethylamino)pyrrolidin-1-yl](7S)-4-[(6-methoxypyrazolo[1,5-a]pyridin-5-yl)amino]-5,6,7,8-tetrahydro[1]benzothieno[2,3-d]pyrimidin-7-ylmethanone], the IC50 is 1 to 10 nM in test [1] and less than 1 nM on human full-length MKNK1.

Turning to `COc1cn2nccc2cc1Nc1ncnc2sc3c(c12)CC[C@H](C(=O)N1CCN(C)CC1)C3` [Example 113, (7S)-4-[(6-Methoxypyrazolo[1,5-a]pyridin-5-yl)amino]-5,6,7,8-tetrahydro[1]benzothieno[2,3-d]pyrimidin-7-yl(4-methylpiperazin-1-yl)methanone], the results for the concentration for half-maximal inhibition (IC50) (in test [1]; on human full-length MKNK1) were 10 to 100 nM and 1 nM, respectively.

Take `COc1cn2nccc2cc1Nc1ncnc2sc3c(c12)CC[C@H](C(=O)NC(C)C)C3` [Example 85, (7S)-4-[(6-Methoxypyrazolo[1,5-a]pyridin-5-yl)amino]-N-(propan-2-yl)-5,6,7,8-tetrahydro[1]benzothieno[2,3-d]pyrimidine-7-carboxamide]: the IC50 is 1 to 10 nM in test [1] and 4 nM at human full-length MKNK1.

Turning to `COc1cn2nccc2cc1Nc1ncnc2sc3c(c12)CC[C@H](C(=O)N(C)C)C3` [Example 15, (7S)-4-[(6-Methoxypyrazolo[1,5-a]pyridin-5-yl)amino]-N,N-dimethyl-5,6,7,8-tetrahydro[1]benzothieno[2,3-d]pyrimidine-7-carboxamide], the results for the IC50 (in test [1]; at human full-length MKNK1) were 10 to 100 nM and 4 nM, respectively.

Consider `COc1cn2nccc2cc1Nc1ncnc2sc3c(c12)CC[C@H](C(=O)N(C)CCO)C3` [Example 103, (7S)—N-(2-Hydroxyethyl)-4-[(6-methoxypyrazolo [1,5-a]pyridin-5-yl)amino]-N-methyl-5,6,7,8-tetrahydro[1]benzothieno[2,3-d]pyrimidine-7-carboxamide], for which the 50% inhibitory concentration (IC50) is 1 to 10 nM in test [1] and 3 nM at human full-length MKNK1.

Consider `CN(C)C1CN(C(=O)[C@H]2CCc3c(sc4ncnc(Nc5cc6ccnn6cc5Cl)c34)C2)C1` [Example 54, (7S)-4-[(6-Chloropyrazolo[1,5-a]pyridin-5-yl)amino]-5,6,7,8-tetrahydro[1]benzothieno[2,3-d]pyrimidin-7-yl[3-(dimethylamino)azetidin-1-yl]methanone], for which the IC50 in test [1] was 10 to 100 nM; at human full-length MKNK1 it was 11 nM.

Regarding `CN(CCN)C(=O)[C@H]1CCc2c(sc3ncnc(Nc4ccn5nccc5c4)c23)C1` [Example 39, (7S)—N-(2-Aminoethyl)-N-methyl-4-(pyrazolo[1,5-a]pyridin-5-ylamino)-5,6,7,8-tetrahydro[1]benzothieno[2,3-d]pyrimidine-7-carboxamide], the half-inhibitory concentration (IC50) in test [1] is not below 100 nM; at human full-length MKNK1, 41 nM.

Consider `COc1cn2nccc2cc1Nc1ncnc2sc3c(c12)CC[C@H](C(=O)N1CCOC[C@@H]1C)C3` [Example 125, (7S)-4-[(6-Methoxypyrazolo[1,5-a]pyridin-5-yl)amino]-5,6,7,8-tetrahydro[1]benzothieno[2,3-d]pyrimidin-7-yl[(3S)-3-methylmorpholin-4-yl]methanone], for which the IC50 in test [1] was not below 100 nM; at human full-length MKNK1, 1 nM.

In the case of `COc1cn2nccc2cc1Nc1ncnc2sc3c(c12)CC[C@H](C(=O)N1CCOCC1)C3` [Example 116, (7S)-4-[(6-Methoxypyrazolo[1,5-a]pyridin-5-yl)amino]-5,6,7,8-tetrahydro[1]benzothieno[2,3-d]pyrimidin-7-yl(morpholin-4-yl)methanone], the IC50 in test [1] is 10 to 100 nM; on human full-length MKNK1 it was 1 nM.

Regarding `CN(C)CCN(C)C(=O)[C@H]1CCc2c(sc3ncnc(Nc4cc5ccnn5cc4Cl)c23)C1` [Example 53, (7S)-4-[(6-Chloropyrazolo[1,5-a]pyridin-5-yl)amino]-N-[2-(dimethylamino)ethyl]-N-methyl-5,6,7,8-tetrahydro[1]benzothieno[2,3-d]pyrimidine-7-carboxamide], the IC50 in test [1] is not below 100 nM; on human full-length MKNK1, 9 nM.

In the case of `COc1cn2nccc2cc1Nc1ncnc2sc3c(c12)CC[C@H](C(=O)N1CC(C)(O)C1)C3` [Example 100, (3-Hydroxy-3-methylazetidin-1-yl)(7S)-4-[(6-methoxypyrazolo[1,5-a]pyridin-5-yl)amino]-5,6,7,8-tetrahydro[1]benzothieno[2,3-d]pyrimidin-7-ylmethanone], the figures for the IC50 (in test [1]; at human full-length MKNK1) were 1 to 10 nM and less than 1 nM, respectively.

As to `COc1cn2nccc2cc1Nc1ncnc2sc3c(c12)CC[C@H](C(=O)N1CC(C#N)C1)C3` [Example 98, 1-((7S)-4-[(6-Methoxypyrazolo[1,5-a]pyridin-5-yl)amino]-5,6,7,8-tetrahydro[1]benzothieno[2,3-d]pyrimidin-7-ylcarbonyl)azetidine-3-carbonitrile], the IC50 in test [1] was not below 100 nM; at human full-length MKNK1 it was 1 nM.

On to `CN1CCN(C(=O)[C@H]2CCc3c(sc4ncnc(Nc5cc6ccnn6cc5Cl)c34)C2)CC1` [Example 65, (7S)-4-[(6-Chloropyrazolo[1,5-a]pyridin-5-yl)amino]-5,6,7,8-tetrahydro[1]benzothieno[2,3-d]pyrimidin-7-yl(4-methylpiperazin-1-yl)methanone], for which the figures for the IC50 (in test [1]; at human full-length MKNK1) were 10 to 100 nM and 5 nM, respectively.

For the compound `COc1cn2nccc2cc1Nc1ncnc2sc3c(c12)CC[C@H](C(=O)N(C)CC(F)F)C3` [Example 95, (7S)—N-(2,2-Difluoroethyl)-4-[(6-methoxypyrazolo[1,5-a]pyridin-5-yl)amino]-N-methyl-5,6,7,8-tetrahydro[1]benzothieno[2,3-d]pyrimidine-7-carboxamide], the IC50 in test [1] is 10 to 100 nM; on human full-length MKNK1, 2 nM.

As for `CN(C)CCCN(C)C(=O)[C@H]1CCc2c(sc3ncnc(Nc4ccn5nccc5c4)c23)C1` [Example 27, (7S)—N-[3-(Dimethylamino)propyl]-N-methyl-4-(pyrazolo[1,5-a]pyridin-5-ylamino)-5,6,7,8-tetrahydro[1]benzothieno[2,3-d]pyrimidine-7-carboxamide], the figures for the half-inhibitory concentration (IC50) (in test [1]; at human full-length MKNK1) were not below 100 nM and 13 nM, respectively.

As to `CN(C)CCCN(C)C(=O)[C@H]1CCc2c(sc3ncnc(Nc4cc5ccnn5cc4Cl)c23)C1` [Example 51, (7S)-4-[(6-Chloropyrazolo[1,5-a]pyridin-5-yl)amino]-N-[3-(dimethylamino)propyl]-N-methyl-5,6,7,8-tetrahydro[1]benzothieno[2,3-d]pyrimidine-7-carboxamide], the IC50 in test [1] is 10 to 100 nM; on human full-length MKNK1, 5 nM.

On to `COCCN(C)C(=O)[C@H]1CCc2c(sc3ncnc(Nc4cc5ccnn5cc4OC)c23)C1` [Example 104, (7S)—N-(2-Methoxyethyl)-4-[(6-methoxypyrazolo[1,5-a]pyridin-5-yl)amino]-N-methyl-5,6,7,8-tetrahydro[1]benzothieno[2,3-d]pyrimidine-7-carboxamide], for which the IC50 was 1 to 10 nM in test [1] and 1 nM at human full-length MKNK1.

For the compound `COc1cn2nccc2cc1Nc1ncnc2sc3c(c12)CC[C@H](C(=O)N1CC(N(C)C)C1)C3` [Example 102, [3-(Dimethylamino)azetidin-1-yl](7S)-4-[(6-methoxypyrazolo[1,5-a]pyridin-5-yl)amino]-5,6,7,8-tetrahydro[1]benzothieno[2,3-d]pyrimidin-7-ylmethanone], the IC50 in test [1] was 10 to 100 nM; at human full-length MKNK1, 2 nM.

Turning to `CCN(C)C(=O)[C@H]1CCc2c(sc3ncnc(Nc4cc5ccnn5cc4Cl)c23)C1` [Example 46, (7S)-4-[(6-Chloropyrazolo[1,5-a]pyridin-5-yl)amino]-N-ethyl-N-methyl-5,6,7,8-tetrahydro[1]benzothieno[2,3-d]pyrimidine-7-carboxamide], the IC50 at human full-length MKNK1 is 11 nM.

`CN(CC(C)(C)O)C(=O)[C@H]1CCc2c(sc3ncnc(Nc4ccn5nccc5c4)c23)C1` [Example 19, (7S)—N-(2-Hydroxy-2-methylpropyl)-N-methyl-4-(pyrazolo[1,5-a]pyridin-5-ylamino)-5,6,7,8-tetrahydro[1]benzothieno[2,3-d]pyrimidine-7-carboxamide]: the IC50 on human full-length MKNK1 came to 21 nM.

Consider `CN(C)CCN1CCN(C(=O)[C@H]2CCc3c(sc4ncnc(Nc5ccn6nccc6c5)c34)C2)CC1` [Example 31, {4-[2-(Dimethylamino)ethyl]piperazin-1-yl}[(7S)-4-(pyrazolo[1,5-a]pyridin-5-ylamino)-5,6,7,8-tetrahydro[1]benzothieno[2,3-d]pyrimidin-7-yl]methanone], for which the half-inhibitory concentration (IC50) at human full-length MKNK1 was found to be 26 nM.
